# Laboratory results taken from ChEMBL document CHEMBL1136972, “Repenins A-D, four new antioxidative coumarinolignoids from Duranta repens Linn” (Bioorg Med Chem Lett, 2009).
# System: Radical scavenging activity
# Assay: Antioxidant activity assessed as DPPH free radical scavenging activity
# Type: functional
row,Compound,IC50
1,COc1ccc(O)c(C(C)(C)C)c1.COc1ccc(O)cc1C(C)(C)C [BUTYLATED HYDROXYANISOLE],43 µM
2,COc1cc([C@H]2Oc3c(OC)cc4ccc(=O)oc4c3O[C@@H]2CO)ccc1O [CLEOMISCOSIN A],612 µM
3,COc1cc([C@H]2Oc3c(OC)cc4ccc(=O)oc4c3O[C@@H]2COC(=O)/C=C/c2ccc(O)c(O)c2)ccc1O [REPENIN C],450 µM
4,COc1cc([C@H]2Oc3c(OC)cc4ccc(=O)oc4c3O[C@@H]2COC(=O)/C=C/c2ccc(O)cc2)ccc1O [REPENIN A],530 µM
5,COc1cc([C@H]2Oc3c(OC)cc4ccc(=O)oc4c3O[C@@H]2COC(=O)c2ccc(O)c(O)c2)cc(OC)c1O [REPENIN D],510 µM
6,COc1cc([C@H]2Oc3c(OC)cc4ccc(=O)oc4c3O[C@@H]2COC(C)=O)ccc1O [DURANTIN A],625 µM
7,COc1cc(/C=C/C(=O)OC[C@H]2Oc3c(c(OC)cc4ccc(=O)oc34)O[C@@H]2c2ccc(O)c(OC)c2)ccc1O [REPENIN B],420 µM
